Test results reported in patent US20180271869A1, “TREATMENT OF ANXIETY DISORDERS AND AUTISM SPECTRUM DISORDERS” (Rugen Holdings (Cayman) Limited, priority 2014, published 2018).
Entries after “also recorded” stand apart in the source; their conditions may differ.

Legend:
Sapap3 knock-out mice = assay: Novelty Phobia Test in Sapap3 knock-out mice; format: in vivo, mouse; conditions: for novelty phobia (number of touch bouts), dose dependence: single i.p. administration
Description: (§1) Animals. Shank3 knockout mice and Sapap3 knockout mice were purchased from Duke University. The animals were raised in a SPF environment according to AALAC guidelines. The breeding conditions and genotyping method were the same as described in J. M. Welch et al., Nature 2007; 448(7156):894-900, and in J. Peca et al., Nature 2011;472(7344):437-442. Homozygous knockout mice of 4 to 8 weeks of age were used in behavioral assays.
The test compounds were dissolved in a small volume of DMSO and diluted saline and administered intraperitoneally (i.p.) to 4 to 8 week old mice. […]
The behavioral testing apparatus was a rectangular black Plexiglas box, with no top or bottom (50 cm long, 26 cm wide and 15 cm tall). The chambers of the testing apparatus were cleaned and fresh paper chip bedding was added between tests. Behavioral tests were conducted between 10:00 am and 1:00 pm in dim light. Mice were brought to the experiment room in their home cages and administered intraperitoneally with drugs or vehicle in a volume of 10 ml/kg. […] After this habituation period, a novel object (e.g., a toy ball of 3 cm in diameter with spikes) was introduced to the center of the chamber for 5 min. For the entire 15 min that the mouse spent in the chamber, video was recorded and analyzed with AnyMaze software (purchased from Stoelting Co.). The total distance traveled during the entire 15 min and the bouts that the mice touched the novel object during the last 5 min were measured. Statistical significance between two groups was determined by t test. In all statistical measures, the criterion for significance was set at p<0.05.

human NR1/NR2A [1] = target: T1, human NR1/NR2A (Homo sapiens, UniProt Q05586+Q12879); assay: NR2A antagonist activity, Fluo-4 calcium influx assay in HEK293 cells; format: cell-based; conditions: glutamate 100 μM and glycine 50 μM, Fluo-4 fluorescence, read-out: hNR2A IC50
T1 construct: expressed in transfected cells
Excerpt: HEK293 cell lines stably expressing cloned human NR1/NR2B and NR1/NR2A, respectively, were established according to standard previously described methods (Hansen et al., Comb. Chem High Throughput Screen. 11:304, 2008). Activation of the NR2A or NR2B subtype of NMDA receptor with glutamate as an agonist and glycine co-agonist on these cells results in calcium influx, which can be monitored with fluorescent indicator Fluo-4. A cell based assay has been implemented to evaluate the effect of a compound on NR2A and NR2B receptors by measuring the fluorescent changes (Hansen et al., Comb. Chem High Throughput Screen. 11:304, 2008).
HEK293 cells stably expressing NR2A or NR2B receptors were cultured at 37° C. in a humidified CO2 incubator in DMEM supplemented with 10% fetal bovine serum (FBS) (Hyclone), 10 μM MK801 (Sigma-Aldrich) and 50 μM AP-5 (Tocris). For experiments, the cells were seeded onto poly-D-lysine-coated 96-well black plates with clear bottom (Corning) at a density of ˜50,000 cells/well. After overnight culture, the growth medium was removed from the wells and the cells were incubated at 37° C. for 60 min in Hanks buffer containing 4 μM fluo-4-AM (Invitrogen) and 0.1% bovine serum albumin (BSA). After dye-loading, the cells were washed three times with Hanks buffer and incubated for 10 min at room temperature with various concentrations of test compounds prepared in Hanks buffer with 0.1% BSA. The cell plates were placed onto FDSS μCell fluorescence reader (Hamamatsu). After 20 sec reading of background fluorescence, agonist glutamate at final 100 μM and co-agonist glycine at final 50 μM were added to the cells to activate the receptor, and the resulting fluorescence changes were recorded and quantified. Based on the changes in fluorescence intensity, the pharmacological effect of test compounds were analyzed and the IC50 values derived from a non-linear least squares fitting of the concentration-dependent response to a standard logistic equation using Prism (Graphpad, Inc):
Amplitude=Max Amplitude/(1+(IC50/[antagonist])°).

human NR1/NR2B = target: T2, human NR1/NR2B (Homo sapiens, UniProt Q05586+Q13224); assay: NR2B antagonist activity, Fluo-4 calcium influx assay in HEK293 cells; format: cell-based; conditions: glutamate 100 μM and glycine 50 μM, Fluo-4 fluorescence, read-out: hNR2B IC50
T2 construct: expressed in transfected cells
Description: HEK293 cell lines stably expressing cloned human NR1/NR2B and NR1/NR2A, respectively, were established according to standard previously described methods (Hansen et al., Comb. Chem High Throughput Screen. 11:304, 2008). Activation of the NR2A or NR2B subtype of NMDA receptor with glutamate as an agonist and glycine co-agonist on these cells results in calcium influx, which can be monitored with fluorescent indicator Fluo-4.
For experiments, the cells were seeded onto poly-D-lysine-coated 96-well black plates with clear bottom (Corning) at a density of ˜50,000 cells/well. After overnight culture, the growth medium was removed from the wells and the cells were incubated at 37° C. for 60 min in Hanks buffer containing 4 μM fluo-4-AM (Invitrogen) and 0.1% bovine serum albumin (BSA). After dye-loading, the cells were washed three times with Hanks buffer and incubated for 10 min at room temperature with various concentrations of test compounds prepared in Hanks buffer with 0.1% BSA. The cell plates were placed onto FDSS μCell fluorescence reader (Hamamatsu). After 20 sec reading of background fluorescence, agonist glutamate at final 100 μM and co-agonist glycine at final 50 μM were added to the cells to activate the receptor, and the resulting fluorescence changes were recorded and quantified.

human NR1/NR2A [2] = target: T3, human NR1/NR2A (Homo sapiens, UniProt Q12879); conditions: from L. Mony et al., Br. J. Pharmacol. 2009; read-out: hNR2A IC50; cited from earlier work
T3 construct: expressed in transfected cells

Shank3 knock-out mice = assay: Novelty Phobia Test in Shank3 knock-out mice; format: in vivo, mouse; conditions: for novelty phobia (number of touch bouts): vs vehicle, p<0.05
Description: as §1
The test compounds were dissolved in a small volume of DMSO and diluted saline and administered intraperitoneally (i.p.) to 4 to 8 week old mice. About 30-60 minutes after dosing, the mice were subjected to a behavioral test as described below.
The behavioral testing apparatus was a rectangular black Plexiglas box, with no top or bottom (50 cm long, 26 cm wide and 15 cm tall). The chambers of the testing apparatus were cleaned and fresh paper chip bedding was added between tests. Behavioral tests were conducted between 10:00 am and 1:00 pm in dim light. Mice were brought to the experiment room in their home cages and administered intraperitoneally with drugs or vehicle in a volume of 10 ml/kg. About 30 to 60 min after drug administration, the mice were placed into the chamber and allowed to free play for 10 min. After this habituation period, a novel object (e.g., a toy ball of 3 cm in diameter with spikes) was introduced to the center of the chamber for 5 min. For the entire 15 min that the mouse spent in the chamber, video was recorded and analyzed with AnyMaze software (purchased from Stoelting Co.). The total distance traveled during the entire 15 min and the bouts that the mice touched the novel object during the last 5 min were measured. Statistical significance between two groups was determined by t test. In all statistical measures, the criterion for significance was set at p<0.05.

wild-type mice = assay: Elevated Plus Maze; format: in vivo, mouse; conditions: for time spent in the open arms: vs vehicle
Excerpt: The Elevated Plus Maze, which detects anxiolytic activity, follows that described by S. L. Handley and S. Mithani Naunyn. Schmied. Arch. Pharmacol. 1984, 327, 1-5. Rodents avoid open spaces (the open arms of an elevated plus-maze). Anxiolytics increase exploratory activity in the open arms, as indicated by increased time spent on the open arms and/or by increased % open-arm entries. The maze consists of 4 arms of equal length and width (14×5 cm) arranged in the form of a plus sign (+). Two opposite arms are enclosed by 12 cm high walls (closed arms). The 2 other arms have no walls (open arms). The maze is raised approximately 60 cm above the floor. A mouse was placed in the center of the plus-maze and left to explore for 5 minutes. The number of entries into the open and closed arms and the time spent on the open arms were recorded. The percentage of open arm entries (open arm entries/total arm entries×100) was calculated. Ten mice were studied per group. The test was performed blind (test substances versus vehicle). Data with the test substances were analyzed by comparing treated groups (7 groups except for the reference substance) with vehicle control using one-way ANOVA followed by post-hoc Dunnett's tests. Data with the reference substance were analyzed using unpaired Student's t tests.

wild type mice = assay: Marble Burying Test; format: in vivo, mouse; conditions: for number of marbles buried: vs vehicle, p<0.001
Description: The Marble Burying Test was conducted as previously described by C. L. Broekkamp et al., Eur. J. Pharmacol. 1986, 126, 223-229. Mice exposed to novel object (marbles) will bury them in the sawdust floor covering. Anxiolytics decrease the number of marbles buried at non-sedative doses. Mice were individually placed in transparent plastic cages (33×21×18 cm) with 5 cm of sawdust on the floor 25 marbles grouped in the center of the cage. The cage was covered with an inverted plastic cage. Each test cage, together with the marbles, was impregnated with mouse odor before-hand by leaving 10 mice in the cage for 15 minutes. These mice then played no further role in the experiment. The number of marbles covered by sawdust (⅔ or more) was counted at the end of a 30-minute test. Twelve mice were studied per group. The test was performed blind (test substances versus vehicle). Clobazam (8 mg/kg i.p.), administered 40 minutes before the test, was used as reference substance. Data with the test substances were analyzed by comparing treated groups with vehicle control using Kruskall-Wallis test followed by Mann-Whitney U tests. Data with the reference substance were analyzed using Mann-Whitney U tests.

[3] = Mathur et al. 2008; cited from earlier work
[4] = single dose subcutaneous, highest dose tested; Iijima et al. 2010; cited from earlier work
[5] = each test dose, single i.p., vs vehicle
[6] = 5 mg/kg i.p. once/day for 6 days, tested 30-60 min after last dose
[7] = 8 mg/kg i.p. 30 minutes before testing

T1 sequence (Q12879 23-1464, other chains not shown): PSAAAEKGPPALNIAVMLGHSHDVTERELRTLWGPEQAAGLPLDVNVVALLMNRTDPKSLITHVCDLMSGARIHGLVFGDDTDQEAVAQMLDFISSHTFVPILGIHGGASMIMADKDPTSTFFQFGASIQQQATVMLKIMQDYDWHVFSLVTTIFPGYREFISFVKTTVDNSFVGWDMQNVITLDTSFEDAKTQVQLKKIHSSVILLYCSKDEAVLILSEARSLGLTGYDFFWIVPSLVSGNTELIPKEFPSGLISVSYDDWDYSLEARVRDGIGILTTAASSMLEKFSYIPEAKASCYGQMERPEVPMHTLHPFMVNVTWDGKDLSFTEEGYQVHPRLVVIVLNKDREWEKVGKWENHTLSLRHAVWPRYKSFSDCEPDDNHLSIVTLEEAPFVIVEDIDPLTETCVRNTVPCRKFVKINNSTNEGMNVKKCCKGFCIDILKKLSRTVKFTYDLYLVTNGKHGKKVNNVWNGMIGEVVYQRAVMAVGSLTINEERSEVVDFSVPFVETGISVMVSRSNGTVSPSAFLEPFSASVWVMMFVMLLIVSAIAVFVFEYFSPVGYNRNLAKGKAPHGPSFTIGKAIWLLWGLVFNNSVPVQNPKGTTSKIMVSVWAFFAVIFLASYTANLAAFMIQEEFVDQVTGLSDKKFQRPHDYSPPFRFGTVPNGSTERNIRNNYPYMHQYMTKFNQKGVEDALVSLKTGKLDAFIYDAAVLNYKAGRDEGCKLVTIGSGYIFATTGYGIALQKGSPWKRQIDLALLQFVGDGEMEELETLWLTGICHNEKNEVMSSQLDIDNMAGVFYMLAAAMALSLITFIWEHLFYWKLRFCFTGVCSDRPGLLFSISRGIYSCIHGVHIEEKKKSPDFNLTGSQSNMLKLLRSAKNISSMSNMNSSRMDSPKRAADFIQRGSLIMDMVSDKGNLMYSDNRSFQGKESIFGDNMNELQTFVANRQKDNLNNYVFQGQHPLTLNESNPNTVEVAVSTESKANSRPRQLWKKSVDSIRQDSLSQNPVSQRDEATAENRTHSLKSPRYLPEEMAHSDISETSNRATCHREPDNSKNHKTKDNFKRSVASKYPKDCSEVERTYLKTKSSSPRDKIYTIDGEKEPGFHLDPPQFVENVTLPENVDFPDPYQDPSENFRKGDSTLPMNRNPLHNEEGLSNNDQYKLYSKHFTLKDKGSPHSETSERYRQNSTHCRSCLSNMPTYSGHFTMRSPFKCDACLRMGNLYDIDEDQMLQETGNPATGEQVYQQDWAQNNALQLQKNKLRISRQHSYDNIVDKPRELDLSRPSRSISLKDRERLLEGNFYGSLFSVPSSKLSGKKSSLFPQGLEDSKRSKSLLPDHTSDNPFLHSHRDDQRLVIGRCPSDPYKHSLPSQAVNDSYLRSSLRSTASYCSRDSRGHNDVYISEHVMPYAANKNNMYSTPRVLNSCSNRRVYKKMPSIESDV
T2 sequence (Q13224 27-1484, other chains not shown): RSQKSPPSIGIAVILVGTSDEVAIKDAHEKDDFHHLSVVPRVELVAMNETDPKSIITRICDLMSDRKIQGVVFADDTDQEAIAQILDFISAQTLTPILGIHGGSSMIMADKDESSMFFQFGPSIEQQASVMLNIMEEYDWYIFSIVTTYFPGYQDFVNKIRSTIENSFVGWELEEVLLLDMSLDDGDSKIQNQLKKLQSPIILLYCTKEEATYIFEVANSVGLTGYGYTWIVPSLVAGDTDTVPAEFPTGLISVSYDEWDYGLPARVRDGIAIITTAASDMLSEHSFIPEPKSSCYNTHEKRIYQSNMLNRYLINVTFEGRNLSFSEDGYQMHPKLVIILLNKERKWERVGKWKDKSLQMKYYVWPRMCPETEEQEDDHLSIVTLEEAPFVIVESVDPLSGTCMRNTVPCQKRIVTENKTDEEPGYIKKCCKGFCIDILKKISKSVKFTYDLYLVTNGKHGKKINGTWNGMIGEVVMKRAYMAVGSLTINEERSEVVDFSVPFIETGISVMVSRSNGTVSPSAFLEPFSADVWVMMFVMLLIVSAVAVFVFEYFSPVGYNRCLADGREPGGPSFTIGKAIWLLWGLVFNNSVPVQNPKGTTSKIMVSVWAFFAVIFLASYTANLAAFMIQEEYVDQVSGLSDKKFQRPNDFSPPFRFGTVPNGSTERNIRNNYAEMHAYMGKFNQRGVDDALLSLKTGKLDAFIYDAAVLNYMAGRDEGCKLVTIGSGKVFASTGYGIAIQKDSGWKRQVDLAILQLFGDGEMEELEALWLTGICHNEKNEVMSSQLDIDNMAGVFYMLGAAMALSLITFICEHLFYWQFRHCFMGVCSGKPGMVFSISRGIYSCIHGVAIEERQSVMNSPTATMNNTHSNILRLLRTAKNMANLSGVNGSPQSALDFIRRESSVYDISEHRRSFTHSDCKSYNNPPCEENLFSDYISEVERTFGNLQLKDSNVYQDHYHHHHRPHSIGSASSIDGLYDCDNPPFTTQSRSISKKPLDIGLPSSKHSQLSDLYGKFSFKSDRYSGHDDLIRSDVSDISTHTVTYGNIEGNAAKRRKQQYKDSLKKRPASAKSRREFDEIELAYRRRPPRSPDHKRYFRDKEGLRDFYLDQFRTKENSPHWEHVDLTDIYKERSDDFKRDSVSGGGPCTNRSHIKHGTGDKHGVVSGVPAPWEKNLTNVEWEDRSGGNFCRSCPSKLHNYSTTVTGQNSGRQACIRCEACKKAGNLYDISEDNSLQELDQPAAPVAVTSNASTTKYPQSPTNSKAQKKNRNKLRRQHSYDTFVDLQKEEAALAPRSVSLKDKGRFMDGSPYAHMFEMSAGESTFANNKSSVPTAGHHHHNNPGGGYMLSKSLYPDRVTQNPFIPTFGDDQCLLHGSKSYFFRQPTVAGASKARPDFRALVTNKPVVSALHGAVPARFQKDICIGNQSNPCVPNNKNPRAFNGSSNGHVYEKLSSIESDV
T3 sequence (Q12879 23-1464, other chains not shown): as the sequence (Q12879 23-1464, other chains not shown) above

SMILES: Cc1ccc(COC(=O)N2CC[C@H](CNc3ncccn3)[C@H](F)C2)cc1 (racemic) [Compound C, (±)-cis-4-methylbenzyl 3-fluoro-4-[(pyrimidin-2-ylamino)methyl]piperidine-1-carboxylate]
- novelty phobia (number of touch bouts) (Sapap3 knock-out mice; [5]): significantly improved
- novelty phobia (number of touch bouts), dose dependence (Sapap3 knock-out mice): dose-dependently improved novelty phobia

SMILES: Cc1ccc(COC(=O)N2CC[C@@H](CNc3ncccn3)[C@@H](F)C2)cc1 [(3R,4S)-4-methylbenzyl 3-fluoro-4-[(pyrimidin-2-ylamino)methyl]piperidine-1-carboxylate]
- IC50 (human NR1/NR2A [1]): > 10 µM
- IC50 (human NR1/NR2B): 0.018 µM

SMILES: C[C@@H]([C@@H](O)c1ccc(O)cc1)N1CCC(O)(c2ccccc2)CC1 [Compound A, (+)-(1S,2S)-1-(4-hydroxyphenyl)-2-(4-hydroxy-4-phenylpiperidino)-1-propanol, reference compound]
- IC50 (human NR1/NR2A [2]): ≥ 10 µM
- novelty phobia (number of touch bouts) (Shank3 knock-out mice; [6]): significantly improved novelty phobia

SMILES: FC(F)(F)c1ccc(C(F)(F)CN2CCC(Nc3ncnc4[nH]ncc34)CC2)cc1 [Compound B, N-(1-(2,2-difluoro-2-(4-trifluoromethyl)phenyl-ethyl)piperidin-4-yl)-1H-pyrazolo[3,4-d]pyrimidin-4-amine]
- IC50 (human NR1/NR2A [1]): > 10 µM
- novelty phobia (number of touch bouts) (Shank3 knock-out mice; [6]): significantly improved novelty phobia
- novelty phobia (number of touch bouts) (Shank3 knock-out mice; 1 and 5 mg/kg single i.p.): significantly improved novelty phobia
- novelty phobia (number of touch bouts), dose dependence (Shank3 knock-out mice; single i.p. administration 30-60 min before testing): dose-dependently improved novelty phobia
- novelty phobia (number of touch bouts) (Sapap3 knock-out mice; [5]): significantly improved
- novelty phobia (number of touch bouts), dose dependence (Sapap3 knock-out mice): dose-dependently improved novelty phobia

SMILES: Cc1ccc(COC(=O)N2CC[C@H](CNc3ncccn3)[C@H](F)C2)cc1 [Compound D, (−)-(3S,4R)-cis-4-methylbenzyl 3-fluoro-4-[(pyrimidin-2-ylamino)methyl]-piperidine-1-carboxylate]
- IC50 (human NR1/NR2A [1]): > 10 µM
- time spent in the open arms (wild-type mice; 3 and 10 mg/kg i.p. 20 minutes before the test, p<0.01/0.001): significantly different from that of vehicle
- time spent in the open arms, dose dependence (wild-type mice; single i.p. dose 20 minutes before the test): maximal efficacy approaching that of the benzodiazepine control compound clobazam; also recorded: dose-dependently increased the amount of time spent
- IC50 (human NR1/NR2B): 0.011 µM
- novelty phobia (number of touch bouts) (Sapap3 knock-out mice; 1 mg/kg i.p. 20 minutes prior to testing): improved novelty phobia
- number of marbles buried (wild type mice; 1 mg/kg i.p. 20 minutes before the test): significantly different from that of vehicle
- number of marbles buried, dose dependence (wild type mice; single i.p. dose 20 minutes before 30-minute test session): dose-dependently reduced the number of marbles buried

SMILES: C[C@@H](CN1CCC(Cc2ccccc2)CC1)[C@@H](O)c1ccc(O)cc1 [Ro25-6981]
- activity in the elevated plus maze test [3]: inactive
- effect in the marble burying test [4]: modest efficacy

SMILES: CN1C(=O)CC(=O)N(c2ccccc2)c2cc(Cl)ccc21 [clobazam, reference compound]
- time spent in the open arms (wild-type mice; [7]): significantly different from that of vehicle
- number of marbles buried (wild type mice; [7]): significantly different from that of vehicle
